Test results published in patent publication US12522579B2, “Monoamine oxidase B imaging probe” (TOHOKU UNIVERSITY, priority 2018, dated 2026).

Key:
tau = tau (Homo sapiens, UniProt P10636); assay: Competitive binding against tau in Alzheimer's disease brain with [3H] MK-6240; conditions: for IC50: Alzheimer's disease brain (Braak stage VI), label ligand [3H] MK-6240; for binding to tau (in words): competitive binding test
Experimental: A binding affinity against tau containined in a AD brain was conducted by using Alzheimer's disease brain (Braak stage VI) and [3H] MK-6240 (manufactured by Metck & Co) as a label ligand. The IC50 value was calculated similarly to the case of MAO-B.

MAO-B [1] = molecular target: T1, MAO-B (Homo sapiens (Human), UniProt P27338); assay: Competitive binding test against MAO-B with [3H] THK-5351; conditions: for IC50: MAO-B membrane fractions, label ligand [3H] THK-5351; for binding to MAO-B (in words): competitive binding test
T1 sequence (P27338 whole entry): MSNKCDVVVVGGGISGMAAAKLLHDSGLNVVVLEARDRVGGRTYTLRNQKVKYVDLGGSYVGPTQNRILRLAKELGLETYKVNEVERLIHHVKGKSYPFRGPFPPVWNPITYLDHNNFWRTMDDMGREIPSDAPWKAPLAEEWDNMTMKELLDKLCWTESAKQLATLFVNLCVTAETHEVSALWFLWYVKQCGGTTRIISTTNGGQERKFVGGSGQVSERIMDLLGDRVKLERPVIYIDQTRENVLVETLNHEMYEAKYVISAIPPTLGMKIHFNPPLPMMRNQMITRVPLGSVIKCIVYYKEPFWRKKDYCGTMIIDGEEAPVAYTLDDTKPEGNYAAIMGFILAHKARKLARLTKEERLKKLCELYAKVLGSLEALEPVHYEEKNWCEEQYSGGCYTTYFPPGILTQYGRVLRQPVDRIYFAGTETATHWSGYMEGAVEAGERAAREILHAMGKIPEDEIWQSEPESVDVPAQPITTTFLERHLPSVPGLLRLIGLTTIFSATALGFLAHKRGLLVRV
Experimental: MAO-B (M7441) was purchased from Sigma Aldrich Co. LLC (St. Louis, MO). The MAO-B membrane fractions (0.5 μg), and 0.1 to 10,000 nM of [3H] […] The reaction solution was transferred to MultiScreen HTS 96-well […] filtration plate (Millipore, Billerica, MA), and a B/F separation was conducted with a MultiScreen HTS Vacuum Manifold, and the mixture was washed with Dulbecco's PBS, and 0.1% BSA three times, and the filter was incubated with 2 mL of Scintillation fluid (Emulssifer-Safe; Perkin Elemer, Boston, MA), and a radio activity was measured with a beta counter (LS6500 liquid scintillation counter, Beckman Counter, Brea, CA). IC50 value was calculated by using Graph Pad Prism Version 7 (GraphPad Software, San Diego, CA).

MAO-A = MAO-A (Homo sapiens (Human), UniProt P21397); assay: Competitive binding test against MAO-A with [18F] Fluoroethyl harmine; conditions: for IC50: label ligand [18F] Fluoroethyl harmine; for binding against MAO-A (in words): competitive binding test
MAO-A, sequence (P21397 whole entry): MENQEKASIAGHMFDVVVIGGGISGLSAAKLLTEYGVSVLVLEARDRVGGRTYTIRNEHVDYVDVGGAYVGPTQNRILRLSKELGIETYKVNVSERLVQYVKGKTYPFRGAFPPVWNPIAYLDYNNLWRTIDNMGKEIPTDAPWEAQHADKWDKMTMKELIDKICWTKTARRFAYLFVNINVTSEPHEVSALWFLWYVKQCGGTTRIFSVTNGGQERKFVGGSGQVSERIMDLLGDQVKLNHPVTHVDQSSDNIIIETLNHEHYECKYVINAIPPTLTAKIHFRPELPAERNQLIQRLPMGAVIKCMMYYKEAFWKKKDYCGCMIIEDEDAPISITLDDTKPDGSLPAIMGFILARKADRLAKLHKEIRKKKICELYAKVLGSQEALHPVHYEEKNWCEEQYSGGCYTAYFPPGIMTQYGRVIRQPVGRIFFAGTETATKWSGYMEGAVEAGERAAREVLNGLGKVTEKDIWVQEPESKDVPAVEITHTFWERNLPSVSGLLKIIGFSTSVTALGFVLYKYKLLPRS
Experimental: MAO-A (M7316) was purchased from Sigma Aldrich Co. LLC (St. Louis, MO). The […] (0.5 μg) and 0.1 to 10,000 nM of [^18F] Fluoroethyl harmine (10 μCi/mL, 2 nM) […] were mixed (200 μL), and the mixture was reacted at room temperature for 1 hour. The reaction solution was transfered to MultiScreen HTS 96-well 0.65 μm filtration plate (Millipore, Billerica, MA), and a B/F separation was conducted with MultiScreen HTS Vacuum Manifold, and washed with Dulbecco's PBS and 0.1% BSA three times, and a radioactivity contained in a filter was measured with a gamma counter (AccFLEX γ7000, manufactured from ALOKA Co. Ltd.). The IC50 value was calculated similarly to the case of MAO-B.

[2] = Dynamic evaluation (body distribution) in normal mouse; type: in vivo; conditions: bone accumulation, male ICR mouse
Experimental: Each saline containing [^18F] HK-5470 as the compound of the present invention, (S)-[^18F] HK-5174 as the comparative compound, or [^18F] HK-5351 as the ^18F labeled-compound (740 kBq) was administered intravenously via tail to male ICR mouse (6 weeks old), and after 2 min., 10 min., 30 min., 60 min., and 120 min., cervical dislocation of mouse was performed under ether anesthesia, and each organ tissue including brain was extracted, and a weight and a radioactivity of each organ was measured with Gamma counter (AccuFLEX γ7000, measured by Hitachi-Aloka Medical, Tokyo). The accumulation of radioactivity was evaluated by making the ratio of radioactivity per weight of tissue against total administered radioactivity (% Injected Dose/g of tissue; % ID/g) an index. The evaluation was conducted in a ratio of four per group.

MAO-B [3] = molecular target: T1, MAO-B; assay: In vitro autoradiography of human necropsy brain sections; type: binding
Experimental: Each […] slice frozen section of a normal necropsy brain (person) and an Alzheimer's disease necropsy brain (person; neurofibrillary tangles stage was Braak stage VI) was dried at room temperature, and phosphate buffered saline (PBS) was added thereto and the wetting treatment was consucted for 30 minutes. Pre-incubation was conducted for 30 minutes by using PBS containing 1% bovine serum albumin (BSA). A PBS (370 kBq/mL) containing 1% BSA of the ^18F labeled compound were added dropwise to the section, and the reaction was conducted at room temperature for 30 minutes. In order to evaluate a specific binding to MAO-B, a similar reaction to the above reaction was conducted in the presence of MAO-B selective inhibitor (that is, Lazabemide) (10 μM). After that, the section was washed by soaking it in PBS containing 1% BSA for 5 minutes, and further in PBS for 5 minutes twice. After the section was dried at room temperature, an imaging plate (GE healthcare, BAS-MS 2025) was exposed to light, and an image (spartial resolution 25 μm×25 μm) was acquired by a FLA-9500 imaging analyzer plate (GE healthcare). The adjacent sections were subjected to an immunostaining using MAO-B (manufactured from Sigma, Aldrich, Co. LLC), AT8 tau (manufactured from Innogenetics, N.V.), or 6F/3D 6-amyloid (DAKO) antibody, and the resulting stainned distributions were compared with a distribution of a binding to tracer. Similar tests were conducted by using as comparative compound, (S)-[^18F] HK-5174 (WO 2017/103257 A1), and(S)-[^18F] THK-5351, each having the following structural formula respectively.

tau, sequence (P10636 2-758 limits assumed): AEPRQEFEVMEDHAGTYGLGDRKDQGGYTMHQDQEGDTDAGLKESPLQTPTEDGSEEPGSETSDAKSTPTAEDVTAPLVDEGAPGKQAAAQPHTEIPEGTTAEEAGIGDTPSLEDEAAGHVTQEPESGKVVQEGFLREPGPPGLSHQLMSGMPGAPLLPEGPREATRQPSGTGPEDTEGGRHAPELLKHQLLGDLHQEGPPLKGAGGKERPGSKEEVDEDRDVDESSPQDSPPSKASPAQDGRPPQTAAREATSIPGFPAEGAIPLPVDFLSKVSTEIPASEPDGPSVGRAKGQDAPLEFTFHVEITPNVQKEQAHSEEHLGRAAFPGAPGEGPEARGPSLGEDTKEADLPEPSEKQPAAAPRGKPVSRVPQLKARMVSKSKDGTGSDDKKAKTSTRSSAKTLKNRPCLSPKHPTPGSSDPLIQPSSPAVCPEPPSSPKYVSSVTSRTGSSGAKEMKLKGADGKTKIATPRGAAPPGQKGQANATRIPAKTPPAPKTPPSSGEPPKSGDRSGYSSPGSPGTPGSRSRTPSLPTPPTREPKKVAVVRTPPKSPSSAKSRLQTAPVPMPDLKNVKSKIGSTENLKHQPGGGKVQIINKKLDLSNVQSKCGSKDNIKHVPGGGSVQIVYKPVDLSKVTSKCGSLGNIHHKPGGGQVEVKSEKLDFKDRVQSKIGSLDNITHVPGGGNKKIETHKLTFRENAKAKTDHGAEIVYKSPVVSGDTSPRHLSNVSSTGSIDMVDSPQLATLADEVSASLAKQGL

Structure (SMILES) | IC50 (tau) | binding to tau (in words) (tau) | IC50 (MAO-B [1]) | binding to MAO-B (in words) (MAO-B [1]) | IC50 (MAO-A) | binding against MAO-A (in words) (MAO-A) | defluorination to bone [2] | accumulation in Alzheimer's disease (AD) frontal lobe sections (MAO-B [3]; 18F labeled compound 370 kBq/mL, autoradiography) | binding in the presence of MAO-B selective inhibitor Lazabemide (MAO-B [3]; Lazabemide 10 μM, AD frontal lobe section) | specificity of binding (autoradiography conclusion) (MAO-B [3]; human brain sections, compared with MAO-B and tau immunostaining)
CNc1ccc(-c2ccc3cc(OC[C@H](O)CF)ccc3n2)cn1 [THK-5351, reference compound] | 150 nM | mild binding | 5 nM | high binding | > 10000 nM |  |  |  |  | 
Cc1ccc(-c2ccc3cc(OC[C@H](O)CF)ccc3n2)cn1 [THK-5470] | 4460 nM |  |  |  | 713 nM |  |  |  |  | 
Cc1cc(-c2ccc3cc(OC[C@H](O)CF)ccc3n2)ccn1 [THK-5471] | 192 nM | low binding | 12.9 nM | significantly high binding | 1740 nM | low binding |  |  |  | 
Cc1ncccc1-c1ccc2cc(OC[C@H](O)CF)ccc2n1 [THK-5472] | > 10000 nM | low binding | 550 nM |  | > 10000 nM | low binding |  |  |  | 
Cc1ccncc1-c1ccc2cc(OC[C@H](O)CF)ccc2n1 [THK-5473] | > 10000 nM | low binding | 294 nM |  | > 10000 nM | low binding |  |  |  | 
Cc1cncc(-c2ccc3cc(OC[C@H](O)CF)ccc3n2)c1 [THK-5474] | 9630 nM | low binding | 12.2 nM | significantly high binding | > 10000 nM | low binding |  |  |  | 
CNc1ccc(-c2ccc3cc(OC[C@H](O)C[18F])ccc3n2)cn1 [[^18F] THK-5351] |  |  |  |  |  |  | could not be confirmed | high accumulation | decrease in the binding | binds to both MAO-B and tau
